Measurements reported in patent US12195482B1 (Arcus Biosciences, Inc., priority 2022, dated 2025).

Molecular target: T1, Axl (Homo sapiens, UniProt P30530)
T1 sequence (P30530 26-894): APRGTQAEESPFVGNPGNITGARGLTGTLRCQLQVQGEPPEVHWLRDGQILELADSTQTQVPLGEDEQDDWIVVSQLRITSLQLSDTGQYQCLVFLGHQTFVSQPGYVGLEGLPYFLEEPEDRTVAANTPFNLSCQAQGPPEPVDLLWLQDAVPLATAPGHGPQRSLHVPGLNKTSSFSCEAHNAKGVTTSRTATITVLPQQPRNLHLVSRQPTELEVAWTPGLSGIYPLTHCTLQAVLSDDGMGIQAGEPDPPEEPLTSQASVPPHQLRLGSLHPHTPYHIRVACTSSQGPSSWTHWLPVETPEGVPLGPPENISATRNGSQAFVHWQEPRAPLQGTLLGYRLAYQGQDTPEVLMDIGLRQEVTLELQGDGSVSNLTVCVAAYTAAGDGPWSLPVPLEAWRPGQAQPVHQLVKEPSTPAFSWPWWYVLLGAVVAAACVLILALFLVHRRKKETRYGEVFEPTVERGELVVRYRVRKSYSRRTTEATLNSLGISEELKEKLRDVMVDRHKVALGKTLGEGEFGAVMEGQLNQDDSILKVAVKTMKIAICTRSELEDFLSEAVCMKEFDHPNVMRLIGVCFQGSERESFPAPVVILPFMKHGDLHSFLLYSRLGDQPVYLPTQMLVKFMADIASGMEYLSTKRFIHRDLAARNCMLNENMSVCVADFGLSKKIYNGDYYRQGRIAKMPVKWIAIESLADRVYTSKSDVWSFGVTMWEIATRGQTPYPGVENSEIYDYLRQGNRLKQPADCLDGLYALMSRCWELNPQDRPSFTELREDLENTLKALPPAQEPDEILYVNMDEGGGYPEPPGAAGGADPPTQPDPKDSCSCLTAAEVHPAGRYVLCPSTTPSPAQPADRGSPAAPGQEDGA
Experiment: Axl NanoBRET intracellular kinase assay (intracellular binding, K-5 tracer displacement)
Design: host or cells: HEK-293
Conditions: HEK-293 cells transfected with Axl-NanoLuc, 0.35 μM K-5 NanoBRET tracer; read-out: Cell Binding AXL
Experimental: Measuring Intracellular Binding of Axl Inhibitors
Axl NanoBRET™ intracellular kinase assay (Promega, N2540) was performed according to manufacturer's recommendation. In brief, HEK-293 cells are transiently transfected with Ax1-NanoLuc fusion vector (Promega, NV1071), utilizing Fugene HD transfection reagent (Promega, E2311) a day before experiment following manufacturer's recommendation.
The day of the assay, the cells were collected and resuspended in Opti-MEM media (ThermoFisher, 31985070) at 2e5 cells/mL concentration. Testing compounds were serial diluted and dispensed into a white 384 well polystyrene plate at 200 nL in 100% DMSO. 40 μL of resuspended cells is then added per well for a final condition of 8K cells/well with 0.5% DMSO. After one-hour compound pre-incubation at 37° C. and 5% CO2, cells were further incubated with 0.35 μM K-5 NanoBRET tracer for two-hours at 37° C. and 5% CO2. […] of 3× substrate plus Inhibitor solution was prepared according to kits manual and added to the cells followed by a 30 second pulse centrifugation spin. The plate was then immediately read utilizing an Envision (Perkin Elmer) plate reader. The BRET signal is measured by taking the ratio of the emissions reading at 610 nm and 450 nm. Compound binding is based on the decrease BRET signal caused by the displacement of the K-5 tracer. […] ICso value of compounds was determined by 4-parameter non-linear regression fitting of percent activity in GraphPad Prism software.

| IC50 [nM] | Structure (SMILES) |
| --- | --- |
| 100 to 1000 | COc1cc(-c2c[nH]c3ncc(-c4ccc5c(c4)CC[C@@H](N4C6COCC4C6)CC5)cc23)ccc1-c1ccccn1 [Example 161, 6-[(7S)-2-{3-[3-Methoxy-4-(pyridin-2-yl)phenyl]-1H-pyrrolo[2,3-b]pyridin-5-yl}-6,7,8,9-tetrahydro-5H-benzo[7]annulen-7-yl]-3-oxa-6-azabicyclo[3.1.1]heptane] |
| 100 to 1000 | Fc1cc(-c2c[nH]c3ncc(-c4ccc5c(c4)CC[C@@H](N4C6COCC4C6)CC5)cc23)ccc1-c1ccccn1 [Example 40, 6-[(7S)-2-{3-[3-Fluoro-4-(pyridin-2-yl)phenyl]-1H-pyrrolo[2,3-b]pyridin-5-yl}-6,7,8,9-tetrahydro-5H-benzo[7]annulen-7-yl]-3-oxa-6-azabicyclo[3.1.1]heptane] |
| < 100 | c1cc(-n2cc(-c3c[nH]c4ncc(-c5ccc6c(c5)CC[C@@H](N5C7COCC5C7)CC6)cc34)cn2)ccn1 [Example 45, 6-[(7S)-2-{3-[1-(Pyridin-4-yl)-1H-pyrazol-4-yl]-1H-pyrrolo[2,3-b]pyridin-5-yl}-6,7,8,9-tetrahydro-5H-benzo[7]annulen-7-yl]-3-oxa-6-azabicyclo[3.1.1]heptane] |
| 100 to 1000 | c1cc(-c2ccc(-c3c[nH]c4ncc(-c5ccc6c(c5)CC[C@@H](N5C7COCC5C7)CC6)cc34)cc2)ccn1 [Example 41, 6-[(7S)-2-{3-[4-(Pyridin-4-yl)phenyl]-1H-pyrrolo[2,3-b]pyridin-5-yl}-6,7,8,9-tetrahydro-5H-benzo[7]annulen-7-yl]-3-oxa-6-azabicyclo[3.1.1]heptane] |
| 100 to 1000 | Cc1nncn1-c1ccc(-c2n[nH]c3ncc(-c4ccc5c(c4)CC[C@@H](N4C6COCC4C6)CC5)cc23)cc1 [Example 11, 6-[(7S)-2-{3-[4-(3-Methyl-4H-1,2,4-triazol-4-yl)phenyl]-1H-pyrazolo[3,4-b]pyridin-5-yl}-6,7,8,9-tetrahydro-5H-benzo[7]annulen-7-yl]-3-oxa-6-azabicyclo[3.1.1]heptane] |
| > 1000 | COc1cccc(-c2ccc(-c3n[nH]c4ncc(-c5ccc6c(c5)CC[C@@H](N5C7COCC5C7)CC6)cc34)cc2)n1 [Example 162, 6-[(7S)-2-{3-[4-(6-Methoxypyridin-2-yl)phenyl]-2H-pyrazolo[3,4-b]pyridin-5-yl}-6,7,8,9-tetrahydro-5H-benzo[7]annulen-7-yl]-3-oxa-6-azabicyclo[3.1.1]heptane] |
| < 100 | C[C@@H]1CCCN1[C@@]1(C)CCc2ccc(-c3cnc4[nH]nc(-c5ccc(-c6nccs6)cc5)c4c3)cc2CC1 [Example 91, 2-(4-{5-[(7S)-7-Methyl-7-[(2R)-2-methylpyrrolidin-1-yl]-6,7,8,9-tetrahydro-5H-benzo[7]annulen-2-yl]-2H-pyrazolo[3,4-b]pyridin-3-yl}phenyl)-1,3-thiazole] |
| < 100 | CN(C)C(=O)c1ccccc1-c1ccc(-c2c[nH]c3ncc(-c4ccc5c(c4)CC[C@@H](N4C6COCC4C6)CC5)cc23)cc1 [Example 92, N,N-Dimethyl-4′-{5-[(7S)-7-{3-oxa-6-azabicyclo[3.1.1]heptan-6-yl}-6,7,8,9-tetrahydro-5H-benzo[7]annulen-2-yl]-1H-pyrrolo[2,3-b]pyridin-3-yl}-[1,1′-biphenyl]-2-carboxamide] |
| < 100 | Cc1cncnc1-c1ccc(-c2c[nH]c3ncc(-c4ccc5c(c4)CC[C@@H](N4C6COCC4C6)CC5)cc23)cc1 [Example 47, 6-[(7S)-2-{3-[4-(5-Methylpyrimidin-4-yl)phenyl]-1H-pyrrolo[2,3-b]pyridin-5-yl}-6,7,8,9-tetrahydro-5H-benzo[7]annulen-7-yl]-3-oxa-6-azabicyclo[3.1.1]heptane] |
| < 100 | Cc1nccnc1-c1ccc(-c2c[nH]c3ncc(-c4ccc5c(c4)CC[C@@H](N4C6COCC4C6)CC5)cc23)cc1 [Example 48, 6-[(7S)-2-{3-[4-(3-Methylpyrazin-2-yl)phenyl]-1H-pyrrolo[2,3-b]pyridin-5-yl}-6,7,8,9-tetrahydro-5H-benzo[7]annulen-7-yl]-3-oxa-6-azabicyclo[3.1.1]heptane] |
| < 100 | C[C@@H]1CCCN1[C@@]1(C)CCc2ccc(-c3cnc4[nH]nc(-c5ccc(-c6ncco6)cc5)c4c3)cc2CC1 [Example 90, 2-(4-{5-[(7S)-7-Methyl-7-[(2R)-2-methylpyrrolidin-1-yl]-6,7,8,9-tetrahydro-5H-benzo[7]annulen-2-yl]-2H-pyrazolo[3,4-b]pyridin-3-yl}phenyl)-1,3-oxazole] |
| < 100 | CS(=O)(=O)c1ccccc1-c1ccc(-c2c[nH]c3ncc(-c4ccc5c(c4)CC[C@@H](N4C6COCC4C6)CC5)cc23)cc1 [Example 93, 6-[(7S)-2-(3-{2′-Methanesulfonyl-[1,1′-biphenyl]-4-yl}-1H-pyrrolo[2,3-b]pyridin-5-yl)-6,7,8,9-tetrahydro-5H-benzo[7]annulen-7-yl]-3-oxa-6-azabicyclo[3.1.1]heptane] |
| 100 to 1000 | c1cncc(-c2ccc(-c3n[nH]c4ncc(-c5ccc6c(c5)CC[C@@H](N5C7COCC5C7)CC6)cc34)cc2)c1 [Example 157, 6-[(7S)-2-{3-[4-(Pyridin-3-yl)phenyl]-2H-pyrazolo[3,4-b]pyridin-5-yl}-6,7,8,9-tetrahydro-5H-benzo[7]annulen-7-yl]-3-oxa-6-azabicyclo[3.1.1]heptane] |
| 100 to 1000 | Clc1cccnc1-c1ccc(-c2c[nH]c3ncc(-c4ccc5c(c4)CC[C@@H](N4C6COCC4C6)CC5)cc23)cc1 [Example 43, 6-[(7S)-2-{3-[4-(3-Chloropyridin-2-yl)phenyl]-1H-pyrrolo[2,3-b]pyridin-5-yl}-6,7,8,9-tetrahydro-5H-benzo[7]annulen-7-yl]-3-oxa-6-azabicyclo[3.1.1]heptane] |
| < 100 | Clc1cc(-c2c[nH]c3ncc(-c4ccc5c(c4)CC[C@@H](N4C6COCC4C6)CC5)cc23)ccc1-c1ccccn1 [Example 44, 6-[(7S)-2-{3-[3-Chloro-4-(pyridin-2-yl)phenyl]-1H-pyrrolo[2,3-b]pyridin-5-yl}-6,7,8,9-tetrahydro-5H-benzo[7]annulen-7-yl]-3-oxa-6-azabicyclo[3.1.1]heptane] |
| < 100 | Cc1ccnnc1-c1ccc(-c2c[nH]c3ncc(-c4ccc5c(c4)CC[C@@H](N4C6COCC4C6)CC5)cc23)cc1 [Example 49, 6-[(7S)-2-{3-[4-(4-Methylpyridazin-3-yl)phenyl]-1H-pyrrolo[2,3-b]pyridin-5-yl}-6,7,8,9-tetrahydro-5H-benzo[7]annulen-7-yl]-3-oxa-6-azabicyclo[3.1.1]heptane] |
| 100 to 1000 | COc1cc(-c2n[nH]c3ncc(-c4ccc5c(c4)CC[C@@H](N4C6COCC4C6)CC5)cc23)ccc1-c1ccccn1 [Example 160, 6-[(7S)-2-{3-[3-Methoxy-4-(pyridin-2-yl)phenyl]-2H-pyrazolo[3,4-b]pyridin-5-yl}-6,7,8,9-tetrahydro-5H-benzo[7]annulen-7-yl]-3-oxa-6-azabicyclo[3.1.1]heptane] |
| < 100 | Cc1cccnc1-c1ccc(-c2n[nH]c3ncc(-c4ccc5c(c4)CC[C@@H](N4C6COCC4C6)CC5)cc23)cc1 [Example 2, 6-[(7S)-2-{3-[4-(3-Methylpyridin-2-yl)phenyl]-2H-pyrazolo[3,4-b]pyridin-5-yl}-6,7,8,9-tetrahydro-5H-benzo[7]annulen-7-yl]-3-oxa-6-azabicyclo[3.1.1]heptane] |
| < 100 | N#Cc1cccnc1-c1ccc(-c2c[nH]c3ncc(-c4ccc5c(c4)CC[C@@H](N4C6COCC4C6)CC5)cc23)cc1 [Example 46, 2-(4-{5-[(7S)-7-{3-Oxa-6-azabicyclo[3.1.1]heptan-6-yl}-6,7,8,9-tetrahydro-5H-benzo[7]annulen-2-yl]-1H-pyrrolo[2,3-b]pyridin-3-yl}phenyl)pyridine-3-carbonitrile] |
| 100 to 1000 | Fc1cccnc1-c1ccc(-c2c[nH]c3ncc(-c4ccc5c(c4)CC[C@@H](N4C6COCC4C6)CC5)cc23)cc1 [Example 42, 6-[(7S)-2-{3-[4-(3-Fluoropyridin-2-yl)phenyl]-1H-pyrrolo[2,3-b]pyridin-5-yl}-6,7,8,9-tetrahydro-5H-benzo[7]annulen-7-yl]-3-oxa-6-azabicyclo[3.1.1]heptane] |
